Among the targets are Histone deacetylase 2 (Homo sapiens, UniProt Q92769); Histone deacetylase 5 (Homo sapiens, UniProt Q9UQL6); Histone deacetylase 4 (Homo sapiens, UniProt P56524).
Data set [1] addresses T1, Protein deacetylase HDAC6 (Homo sapiens, UniProt Q9UBN7).
T1 sequence (Q9UBN7 whole entry): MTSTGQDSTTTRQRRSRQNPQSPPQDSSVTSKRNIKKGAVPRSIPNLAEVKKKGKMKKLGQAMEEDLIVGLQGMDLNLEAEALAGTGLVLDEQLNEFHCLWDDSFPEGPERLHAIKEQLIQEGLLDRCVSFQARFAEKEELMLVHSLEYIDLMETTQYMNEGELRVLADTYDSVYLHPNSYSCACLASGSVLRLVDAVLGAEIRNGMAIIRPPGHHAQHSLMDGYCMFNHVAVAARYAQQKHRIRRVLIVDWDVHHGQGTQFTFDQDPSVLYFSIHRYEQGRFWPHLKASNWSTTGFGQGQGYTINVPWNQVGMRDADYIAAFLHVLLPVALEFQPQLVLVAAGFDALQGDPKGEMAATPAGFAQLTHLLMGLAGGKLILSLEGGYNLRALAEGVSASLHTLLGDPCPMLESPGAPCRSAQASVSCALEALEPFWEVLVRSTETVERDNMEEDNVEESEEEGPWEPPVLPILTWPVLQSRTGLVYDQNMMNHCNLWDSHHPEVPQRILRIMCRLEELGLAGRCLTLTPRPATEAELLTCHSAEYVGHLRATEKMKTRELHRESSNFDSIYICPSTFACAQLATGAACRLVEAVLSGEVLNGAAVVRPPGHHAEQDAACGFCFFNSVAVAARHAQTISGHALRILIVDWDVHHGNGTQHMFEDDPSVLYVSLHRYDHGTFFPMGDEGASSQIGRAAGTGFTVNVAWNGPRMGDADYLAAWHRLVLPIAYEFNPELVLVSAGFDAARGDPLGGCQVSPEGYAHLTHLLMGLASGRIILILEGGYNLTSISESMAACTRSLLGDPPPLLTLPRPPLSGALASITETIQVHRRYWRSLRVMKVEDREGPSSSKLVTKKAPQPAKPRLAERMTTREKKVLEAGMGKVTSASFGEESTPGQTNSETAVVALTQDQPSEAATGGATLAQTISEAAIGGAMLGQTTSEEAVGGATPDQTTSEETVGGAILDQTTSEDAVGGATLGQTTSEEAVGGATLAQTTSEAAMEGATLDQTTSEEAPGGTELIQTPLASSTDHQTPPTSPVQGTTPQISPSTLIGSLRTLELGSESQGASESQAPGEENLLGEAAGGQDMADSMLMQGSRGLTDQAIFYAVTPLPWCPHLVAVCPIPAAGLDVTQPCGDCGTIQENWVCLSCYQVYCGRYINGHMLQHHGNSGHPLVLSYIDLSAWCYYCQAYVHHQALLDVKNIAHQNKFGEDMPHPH
As to the kind of experiment: Inhibition of HDAC6 in human HeLa cells assessed as reduction in K40 hyperacetylation of alpha-tubulin incubated for 6 hrs by immunofluorescence assay. In kind it is cell-based.

Data set [2] concerns the target Histone deacetylase (HDAC1 and HDAC2) (Homo sapiens) (UniProt Q13547+Q92769). As to the kind of experiment: Inhibition of HDAC1/HDAC2 in human HeLa cells assessed as reduction in acetylated histone levels at 20 uM incubated for 24 hrs by immunofluorescence assay. It is filed as cell-based.
The test system of another data set is HeLa. As to the kind of experiment: Selectivity index, ratio of IC50 for HDAC1/HDAC2 in human HeLa cells nuclear extracts to IC50 for recombinant N-GST-tagged HDAC6 (unknown origin). It is filed as cell-based.
The target of data set [3] is T1, Protein deacetylase HDAC6. Put plainly: Inhibition of recombinant N-GST-tagged HDAC6 (unknown origin) assessed as reduction in deacetylation of Ac-Arg-Gly-Lys(Ac)-AMC substrate by fluorescence assay.
The nature of data set [4]: Permeability in human Caco2 cells at pH 7.4. In kind it is ADME, cell-based. Conditions: Caco-2, pH 7.4, read-out: permeability. In general terms: Passage across Caco-2 layers is used to estimate intestinal permeability.
The target of another data set is T2, Histone deacetylase 11 (Homo sapiens, UniProt Q96DB2).
T2 sequence (Q96DB2 whole entry): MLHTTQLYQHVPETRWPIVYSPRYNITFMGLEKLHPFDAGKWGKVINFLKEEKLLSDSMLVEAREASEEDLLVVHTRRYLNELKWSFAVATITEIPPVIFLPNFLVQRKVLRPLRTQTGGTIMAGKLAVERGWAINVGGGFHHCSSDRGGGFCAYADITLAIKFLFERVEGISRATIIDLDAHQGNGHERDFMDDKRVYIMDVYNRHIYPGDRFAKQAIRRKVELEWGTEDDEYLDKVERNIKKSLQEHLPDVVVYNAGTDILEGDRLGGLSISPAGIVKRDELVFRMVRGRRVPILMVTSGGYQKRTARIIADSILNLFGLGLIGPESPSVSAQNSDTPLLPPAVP
Put plainly: Inhibition of full length N-terminal GST-tagged human HDAC11 using Arg-His-Lys-Lys(Ac) substrate incubated for 2 hrs by fluorescence assay.

The next data set addresses T3, Histone deacetylase 8 (Homo sapiens, UniProt Q9BY41).
T3 sequence (Q9BY41 whole entry): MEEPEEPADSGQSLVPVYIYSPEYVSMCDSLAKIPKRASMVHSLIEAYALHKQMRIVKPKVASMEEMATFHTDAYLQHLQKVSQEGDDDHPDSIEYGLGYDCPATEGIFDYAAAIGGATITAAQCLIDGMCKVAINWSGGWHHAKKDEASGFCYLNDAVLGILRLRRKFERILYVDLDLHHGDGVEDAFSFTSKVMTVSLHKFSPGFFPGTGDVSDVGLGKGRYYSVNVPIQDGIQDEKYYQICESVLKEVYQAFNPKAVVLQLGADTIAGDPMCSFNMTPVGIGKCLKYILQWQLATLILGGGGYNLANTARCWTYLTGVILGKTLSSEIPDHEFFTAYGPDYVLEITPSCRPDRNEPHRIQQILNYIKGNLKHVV
Put plainly: Inhibition of full length C-terminal 6x-His tagged human HDAC8 using Arg-His-Lys(Ac)-Lys(Ac) substrate incubated for 2 hrs by fluorescence assay.

Data set [5] is described as follows: Aqueous solubility in pH 6.8 buffer solution. It is filed as physicochemical.
The target of the next data set is Histone deacetylase 3 (Homo sapiens, UniProt O15379). Put plainly: Inhibition of full length C-terminal 6x-His tagged human HDAC3 using Arg-His-Lys-Lys(Ac) substrate incubated for 2 hrs by fluorescence assay.
Sequence of Histone deacetylase 3 (O15379 whole entry): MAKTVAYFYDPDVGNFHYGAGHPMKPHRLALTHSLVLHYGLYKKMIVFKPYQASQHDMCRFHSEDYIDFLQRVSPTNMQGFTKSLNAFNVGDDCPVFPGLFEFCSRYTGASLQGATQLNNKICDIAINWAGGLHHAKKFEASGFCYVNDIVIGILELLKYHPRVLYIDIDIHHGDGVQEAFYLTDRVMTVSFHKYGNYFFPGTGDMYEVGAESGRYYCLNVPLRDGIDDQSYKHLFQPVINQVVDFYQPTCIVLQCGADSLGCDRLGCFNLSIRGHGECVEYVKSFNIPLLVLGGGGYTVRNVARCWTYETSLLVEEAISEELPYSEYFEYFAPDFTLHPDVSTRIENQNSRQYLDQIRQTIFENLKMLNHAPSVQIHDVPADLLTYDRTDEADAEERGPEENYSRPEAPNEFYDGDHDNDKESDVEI
The next data set concerns the target Histone deacetylase 1 (Homo sapiens, UniProt Q13547). Put plainly: Inhibition of full length GST-tagged human HDAC1 using Arg-His-Lys-Lys(Ac) substrate incubated for 2 hrs by fluorescence assay.
In data set [6] the target is T4, Polyamine deacetylase HDAC10 (Homo sapiens, UniProt Q969S8).
T4 sequence (Q969S8 whole entry): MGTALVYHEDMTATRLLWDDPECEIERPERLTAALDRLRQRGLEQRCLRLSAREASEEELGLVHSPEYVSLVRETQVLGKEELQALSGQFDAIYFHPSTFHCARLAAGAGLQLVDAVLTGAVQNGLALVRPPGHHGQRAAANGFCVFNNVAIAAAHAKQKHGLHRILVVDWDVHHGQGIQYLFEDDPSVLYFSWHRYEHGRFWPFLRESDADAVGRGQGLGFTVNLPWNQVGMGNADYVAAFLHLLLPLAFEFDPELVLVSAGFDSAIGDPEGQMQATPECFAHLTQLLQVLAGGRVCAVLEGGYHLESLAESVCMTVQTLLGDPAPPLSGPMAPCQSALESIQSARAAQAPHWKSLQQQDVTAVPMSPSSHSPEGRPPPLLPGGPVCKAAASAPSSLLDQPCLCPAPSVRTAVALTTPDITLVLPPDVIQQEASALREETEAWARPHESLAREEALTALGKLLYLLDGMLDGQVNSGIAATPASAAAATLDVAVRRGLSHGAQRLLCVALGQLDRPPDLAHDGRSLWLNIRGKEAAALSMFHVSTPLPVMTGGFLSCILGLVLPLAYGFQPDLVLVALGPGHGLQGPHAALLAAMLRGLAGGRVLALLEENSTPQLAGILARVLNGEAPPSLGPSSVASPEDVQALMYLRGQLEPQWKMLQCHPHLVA
As to the kind of experiment: Inhibition of N-terminal GST-tagged human HDAC10 (1 to 481 residues) using Arg-His-Lys-Lys(Ac) substrate incubated for 2 hrs by fluorescence assay.

Sequence of Histone deacetylase (HDAC1 and HDAC2) (Homo sapiens) (Q13547 whole entry, looked up): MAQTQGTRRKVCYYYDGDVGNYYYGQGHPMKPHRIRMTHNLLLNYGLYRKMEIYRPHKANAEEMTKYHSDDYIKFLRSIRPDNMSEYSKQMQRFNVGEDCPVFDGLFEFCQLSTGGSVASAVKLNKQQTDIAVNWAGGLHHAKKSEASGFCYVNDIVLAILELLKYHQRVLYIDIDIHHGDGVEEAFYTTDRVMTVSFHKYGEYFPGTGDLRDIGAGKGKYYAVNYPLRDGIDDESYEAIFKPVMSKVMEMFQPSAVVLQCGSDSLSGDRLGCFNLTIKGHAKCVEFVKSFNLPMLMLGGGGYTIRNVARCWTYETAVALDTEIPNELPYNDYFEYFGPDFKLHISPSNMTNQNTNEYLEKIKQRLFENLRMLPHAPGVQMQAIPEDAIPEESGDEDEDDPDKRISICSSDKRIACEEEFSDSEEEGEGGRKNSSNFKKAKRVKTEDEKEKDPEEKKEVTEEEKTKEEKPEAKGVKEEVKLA
Sequence of Histone deacetylase (HDAC1 and HDAC2) (Homo sapiens) (Q92769 whole entry, looked up): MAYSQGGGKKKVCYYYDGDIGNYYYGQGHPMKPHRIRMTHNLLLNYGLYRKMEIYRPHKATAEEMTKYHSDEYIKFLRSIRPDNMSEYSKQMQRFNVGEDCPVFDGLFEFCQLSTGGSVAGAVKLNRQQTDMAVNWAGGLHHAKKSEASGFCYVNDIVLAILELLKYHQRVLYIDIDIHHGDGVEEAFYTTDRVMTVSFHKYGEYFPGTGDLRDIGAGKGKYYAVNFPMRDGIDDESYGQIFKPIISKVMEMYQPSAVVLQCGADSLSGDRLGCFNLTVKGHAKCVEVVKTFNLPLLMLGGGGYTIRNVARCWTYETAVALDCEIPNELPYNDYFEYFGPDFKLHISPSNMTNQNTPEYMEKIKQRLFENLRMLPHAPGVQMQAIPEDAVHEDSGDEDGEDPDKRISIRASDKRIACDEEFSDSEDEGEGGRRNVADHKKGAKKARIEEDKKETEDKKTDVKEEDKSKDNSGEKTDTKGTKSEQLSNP
Sequence of Histone deacetylase 1 (Q13547 whole entry): as the sequence (Q13547 whole entry, looked up) above
Sequence of Histone deacetylase 5 (Q9UQL6 whole entry): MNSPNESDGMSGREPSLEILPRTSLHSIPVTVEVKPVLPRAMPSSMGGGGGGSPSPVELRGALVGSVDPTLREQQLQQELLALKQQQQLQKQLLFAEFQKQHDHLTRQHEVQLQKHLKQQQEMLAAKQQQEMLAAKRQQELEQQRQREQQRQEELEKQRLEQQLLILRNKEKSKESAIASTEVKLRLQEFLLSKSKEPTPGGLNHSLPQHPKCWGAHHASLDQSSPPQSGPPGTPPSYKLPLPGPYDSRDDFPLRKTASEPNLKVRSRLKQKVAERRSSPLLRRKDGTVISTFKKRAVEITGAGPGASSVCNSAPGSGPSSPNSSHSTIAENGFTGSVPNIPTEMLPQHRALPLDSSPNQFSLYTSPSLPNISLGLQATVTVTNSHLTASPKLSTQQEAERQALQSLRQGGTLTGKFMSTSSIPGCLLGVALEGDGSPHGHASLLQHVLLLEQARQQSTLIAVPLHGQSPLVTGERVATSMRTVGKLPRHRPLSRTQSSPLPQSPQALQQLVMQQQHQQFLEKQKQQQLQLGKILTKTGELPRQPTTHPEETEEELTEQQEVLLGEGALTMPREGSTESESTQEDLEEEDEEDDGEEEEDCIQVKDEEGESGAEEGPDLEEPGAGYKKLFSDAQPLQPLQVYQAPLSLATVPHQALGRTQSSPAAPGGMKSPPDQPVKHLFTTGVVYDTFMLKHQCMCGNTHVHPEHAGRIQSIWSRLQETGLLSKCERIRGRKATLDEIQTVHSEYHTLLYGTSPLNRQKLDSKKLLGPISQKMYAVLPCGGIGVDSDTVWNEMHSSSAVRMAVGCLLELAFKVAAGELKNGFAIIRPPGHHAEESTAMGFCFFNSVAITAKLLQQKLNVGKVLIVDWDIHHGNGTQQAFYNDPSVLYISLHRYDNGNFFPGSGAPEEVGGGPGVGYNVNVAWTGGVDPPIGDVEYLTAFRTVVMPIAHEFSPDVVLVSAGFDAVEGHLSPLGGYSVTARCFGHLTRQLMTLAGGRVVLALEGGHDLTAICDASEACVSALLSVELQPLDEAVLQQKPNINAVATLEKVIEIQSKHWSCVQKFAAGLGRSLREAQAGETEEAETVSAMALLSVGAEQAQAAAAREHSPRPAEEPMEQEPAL
Sequence of Histone deacetylase 4 (P56524 whole entry): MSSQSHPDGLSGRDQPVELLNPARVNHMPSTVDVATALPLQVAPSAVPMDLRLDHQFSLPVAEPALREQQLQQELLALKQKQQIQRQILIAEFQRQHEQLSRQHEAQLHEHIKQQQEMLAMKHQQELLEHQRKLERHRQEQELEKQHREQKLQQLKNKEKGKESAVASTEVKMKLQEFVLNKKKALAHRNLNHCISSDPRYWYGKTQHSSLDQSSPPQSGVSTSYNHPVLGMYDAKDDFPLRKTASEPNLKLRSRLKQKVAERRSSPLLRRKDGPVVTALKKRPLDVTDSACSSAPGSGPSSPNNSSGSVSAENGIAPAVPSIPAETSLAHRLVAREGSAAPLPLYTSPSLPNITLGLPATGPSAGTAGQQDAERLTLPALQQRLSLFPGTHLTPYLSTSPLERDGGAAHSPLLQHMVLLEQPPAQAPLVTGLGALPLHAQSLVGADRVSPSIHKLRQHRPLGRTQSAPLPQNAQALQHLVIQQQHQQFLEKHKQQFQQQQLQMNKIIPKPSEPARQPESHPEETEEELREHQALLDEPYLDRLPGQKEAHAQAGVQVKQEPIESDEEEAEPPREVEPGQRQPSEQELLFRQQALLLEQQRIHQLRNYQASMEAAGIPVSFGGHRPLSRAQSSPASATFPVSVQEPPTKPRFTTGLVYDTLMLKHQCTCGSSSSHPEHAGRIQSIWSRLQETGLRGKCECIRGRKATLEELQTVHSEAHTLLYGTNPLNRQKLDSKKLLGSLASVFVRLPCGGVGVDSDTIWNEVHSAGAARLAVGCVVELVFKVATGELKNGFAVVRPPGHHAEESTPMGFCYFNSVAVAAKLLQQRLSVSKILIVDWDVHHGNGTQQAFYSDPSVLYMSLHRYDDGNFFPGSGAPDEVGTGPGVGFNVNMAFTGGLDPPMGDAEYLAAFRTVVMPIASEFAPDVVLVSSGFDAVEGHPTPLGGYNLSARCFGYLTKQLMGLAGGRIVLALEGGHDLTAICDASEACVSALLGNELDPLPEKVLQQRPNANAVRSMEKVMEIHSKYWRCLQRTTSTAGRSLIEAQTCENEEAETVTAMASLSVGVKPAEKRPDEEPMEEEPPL
Sequence of Histone deacetylase 2 (Q92769 whole entry): as the sequence (Q92769 whole entry, looked up) above

A word on the IC50: it is the midpoint of a concentration-inhibition curve. As a reminder, the inhibition is the share of the control response that was lost under treatment. Take `Cn1ccc2cc(C(=O)N3CCn4cc(C(=O)NO)cc4C3)ccc21`: the IC50 was 140 nM in data set [1] and 85 nM in data set [3]. Besides, the inhibition in data set [2] was below 20%. Moreover, the Ratio IC50 in the data set on HeLa is 35.
`COc1ccc(C(=O)N2CCn3cc(C(=O)NO)cc3C2)cc1`: the figures for the IC50 in data set [1] and in [3] were 100 nM and 43 nM, respectively. The inhibition in [2] was below 20%. The Ratio IC50 in the data set with HeLa came out at 130.
For `O=C(NO)c1cn2c(n1)CN(C(=O)c1ccc(-c3ccccc3)cc1)CC2`, the results for the IC50 in [1] and in data set [3] were 2100 nM and 87 nM, respectively. Besides, the inhibition in [2] is below 20%. The Ratio IC50 in the data set on HeLa was determined as 70.
Turning to `Cn1cccc1C(=O)NCc1ccc(C(=O)NO)cc1`, the inhibition in data set [2] is below 20%. Further, the Ratio IC50 with HeLa was 115.
Take `Cn1cccc1C(=O)N1CCn2nc(C(=O)NO)cc2C1`: the IC50 was 2200 nM in [1] and 350 nM in data set [3]. In data set [2], the inhibition was below 20%. For the same molecule, the Ratio IC50 in the data set on HeLa worked out at 220.
For `O=C(NO)c1cc2n(c1)CCN(C(=O)C1CCCCC1)C2`, the IC50 was determined as 730 nM in data set [1] and 100 nM in data set [3]. In data set [2], the inhibition is below 20%. For the same molecule, the Ratio IC50 in the data set on HeLa is 250.
Regarding `O=C(NO)c1cn2c(n1)CN(C(=O)c1cc3ccccc3s1)CC2`, in [2], the inhibition was below 20%. Further, the Ratio IC50 in the data set with HeLa amounted to 52. Besides, the IC50 in data set [3] was 64 nM.
`Cn1c(C(=O)N2CCn3cc(C(=O)NO)cc3C2)cc(Cl)c1Cl`: the 50% inhibitory concentration (IC50) in [1] was 150 nM; in data set [3], 33 nM. For the same molecule, the inhibition in data set [2] is below 20%. For the same molecule, the Ratio IC50 with HeLa is 100.
For the molecule `Cn1cccc1C(=O)N1CCc2cc(C(=O)NO)ccc2C1`, in [2], the inhibition is below 20%. Besides, the Ratio IC50 in the data set on HeLa was 500.
As for `Cn1cc(C(=O)N2CCn3cc(C(=O)NO)cc3C2)c2ccccc21`, the inhibition in [2] is below 20%. For the same molecule, the Ratio IC50 in the data set on HeLa is 6.3. Moreover, the IC50 in data set [3] is 190 nM.
Regarding `COc1ccc(C(=O)N2CCn3nc(C(=O)NO)cc3C2)cc1`, the inhibition in data set [2] was below 20%. For the same molecule, in the data set on HeLa, the Ratio IC50 came out at 120. Further, the IC50 in data set [3] turned out to be 810 nM.
For orientation: solubility means the dissolved amount per volume that the medium holds. In the case of `Cn1cccc1C(=O)N1CCn2cc(C(=O)NO)cc2C1`, in data set [4], the Papp was 4.2 ×10⁻⁶ cm/s. In addition, the IC50 was 39000 nM on Histone deacetylase 2; 69 nM in [1]; 29000 nM on Histone deacetylase 5; 29000 nM at Histone deacetylase 11; 3300 nM against Histone deacetylase 8; above 50000 nM on Histone deacetylase 4. Moreover, the IC50 amounted to 8500 nM against Histone deacetylase 3, 15000 nM against Histone deacetylase 1, 41000 nM in data set [6] and 33 nM in [3]. In addition, the inhibition in data set [2] was below 20%. The same molecule had a solubility in data set [5] above 200 µM.
For the molecule `O=C(NO)c1cc2n(c1)CCN(C(=O)c1ccc(-c3ccccc3)cc1)C2`, the inhibition in [2] is below 20%. For the same molecule, the Ratio IC50 in the data set on HeLa was 44. For the same molecule, the IC50 in data set [3] came to 32 nM.
With `O=C(NO)c1cc2n(c1)CCN(C(=O)c1cccs1)C2`, the inhibition in data set [2] was below 20%. Further, the Ratio IC50 with HeLa turned out to be 150. Also, in data set [3], the IC50 is 110 nM.
Regarding `O=C(NO)c1cc2n(c1)CCN(C(=O)c1cc3ccccc3[nH]1)C2`, the inhibition in [2] was below 20%. Also, the Ratio IC50 in the data set with HeLa worked out at 24. The IC50 in data set [3] came to 280 nM.
In the case of `O=C(NO)c1cc2n(c1)CCN(C(=O)c1cc3ccccc3s1)C2`, in data set [2], the inhibition was below 20%. In addition, the Ratio IC50 in the data set on HeLa came out at 14. Besides, the IC50 in data set [3] stood at 39 nM.
Take `Cn1cccc1C(=O)N1CCn2cc(C(=O)NO)nc2C1`: the inhibition in [2] was below 20%. Also, the Ratio IC50 in the data set on HeLa was 770. In data set [3], the IC50 was 130 nM.
Regarding `Cn1c(C(=O)N2CCn3nc(C(=O)NO)cc3C2)cc2ccccc21`, the IC50 in [1] came to 3500 nM; in [3] it was 76 nM. Besides, the inhibition in [2] is below 20%. The Ratio IC50 with HeLa amounted to 66.

The record behind these values is ChEMBL document CHEMBL3351349, “Histone deacetylase inhibitors derived from 1,2,3,4-tetrahydropyrrolo[1,2-a]pyrazine and related heterocycles selective for the HDAC6 isoform” (Bioorg Med Chem Lett, 2014).
